Reference: patent US20120148604A1, “TRP INHIBITORS AND USES THEREOF” (TRANSPOSAGEN BIOPHARMACEUTICALS, INC., priority 2009, published 2012)
“Also recorded” adds a separate entry of the source. Where two headings read alike, the source gives them in different places.

Experiments:
[1] = STZ induced diabetes, von Frey filament mechanical pain threshold; assay type: in vivo, rat; conditions: STZ treated diabetic control rats vs non-treated control rats
Procedure: Von Frey Filament Test (Chang model): The effect of compounds on mechanical allodynia can be determined by the von Frey filament test in rats with a tight ligation of the L-5 spinal nerve: a model of painful peripheral neuropathy. The surgical procedure is performed as described by Kim et al., Pain 50: 355-363 (1992). A calibrated series of von Frey filaments are used to assess mechanical allodynia (Chaplan et al., J. Neurosci. Methods 53: 55-63 (1994)). Filaments of increasing stiffness are applied perpendicular to the midplantar surface in the sciatic nerve distribution of the left hindpaw. The filaments are slowly depressed until bending occurred and are then held for 4-6 seconds. Flinching and licking of the paw and paw withdrawal on the ligated side are considered positive responses.
Since many patients with diabetes mellitus also suffer from hyperalgesia-derived neuropathic pain, the Trpc4(−/−) rats were studied for this indication. Groups of control and Trpc4 knockout rats were treated with streptozotocin (STZ) in order to induce diabetes. Rats were defined to be in a diabetic state if hyperglycemia and glucosuria occurred. The mechanical induced von Frey filament method was again used to establish altered pain response. When STZ non-treated control rats were compared to STZ diabetic control rats the pain response to mechanical induction was very drastic. […]

TRPC4 [2] = conditions: HEK cells, cited from earlier work
[3] = Paclitaxel induced cold allodynia, acetone cold response; assay type: in vivo, rat
Procedure: Cancer patients who are treated with chemotherapy drugs such as paclitaxel often display sensory abnormalities and symptoms of neuropathic pain such as sudden unexplainable pain attacks. In order to study the effects of cation channels on paclitaxel induced pain, Trpc4−/− rats were treated with the anti-cancer drug. Since one of the major symptoms of patients who are treated with paclitaxel is cold allodynia, control and Trpc4−/− rats were exposed to paclitaxel and tested for acetone cold response. Previously control non-paclitaxel treated and paclitaxel treated WT rats were studied for differences in cold allodynia. Based on established cold score calculations the non-treated rats scored an average of 8 while the paclitaxel treated WT rats scored an average of 15. […] When control and Trpc4−/− treated rats were compared the difference in pain sensitivity was dramatic. […] The reversion to nearly wild type cold allodynia score was remarkable in Trpc4 knockout rats.

TRPC4 [4] = conditions: dominant negative N-term fragment; cited from earlier work

CN(N=O)C(=O)N[C@H]1C(O)O[C@H](CO)[C@@H](O)[C@@H]1O (mixture of isomers) [STZ, streptozotocin]
decrease of threshold for pain [1]: 40%

Cl.NCCCCCCNS(=O)(=O)c1cccc2c(Cl)cccc12 [W-7, N-(6-Aminohexyl)-5-chloro-1-naphthalenesulfonamide hydrochloride]
effect on TRPC4 current (TRPC4 [2]; hydrochloride): significantly decreases TRPC4 current; also recorded: inhibited

Clc1ccc(C(c2ccc(Cl)cc2)n2cc[n+](CC(OCc3ccc(Cl)cc3Cl)c3ccc(Cl)cc3Cl)c2)cc1 (stereo not drawn) [calmidazolium]
effect on TRPC4 current (TRPC4 [2]): not inhibited | effect on TRPC4 current (TRPC4 [2]; listed as CMZ): unable to inhibit TRPC4 current

C=O [Formalin]
duration of nociceptive activity (rubbing face and flipping the head) (Formalin 1.5% 50 μl sc upper lip): 25 to 30 min | start of the activity (wild type rats, Formalin 1.5% 50 μl sc): 10 to 12 s

CC(=O)O[C@H]1C(=O)[C@@]2(C)[C@H]([C@H](OC(=O)c3ccccc3)[C@]3(O)C[C@H](OC(=O)[C@H](O)[C@@H](NC(=O)c4ccccc4)c4ccccc4)C(C)=C1C3(C)C)[C@]1(OC(C)=O)CO[C@@H]1C[C@@H]2O [paclitaxel]
cold score ([3]; paclitaxel treated Trpc4 knockout rats): 9 | cold score (average) ([3]; paclitaxel treated WT rats, non-treated rats scored 8): 15

B1: first ankyrin domain: dominant negative N-term fragment of TRPC4, residues 61-121 (rat and mouse sequence in b219) (protein, UniProt Q9QUQ5 61-121, looked up, fragment)
chain: ININCIDPLGRTALLIAIENENLELIELLLSFNVYVGDALLHAIRKEVVGAVELLLNHKKP
suppression of TRPC4 currents (TRPC4 [4]): successfully suppress TRPC4 currents
